# Experimental data from PubChem BioAssay AID1259407 (Chemical Carcinogenesis Research Information System (CCRIS), 2018).
# Activity calls are given as the source filed them. No rule for the calls is given here.
# Test system: CCRIS mutagenicity, Ames/micronucleus/aberration tests
# Test: CCRIS mutagenicity studies
# [1] = Test System: AMES SALMONELLA TYPHIMURIUM, Strain/Indicator: TA97, Metabolic Activation: HAMSTER, LIVER, S-9, AROCLOR 1254 (10 OR 30%), Method: PREINCUBATION
# [2] = Test System: AMES SALMONELLA TYPHIMURIUM, Strain/Indicator: TA97, Metabolic Activation: NONE, Method: PREINCUBATION
# [3] = Test System: AMES SALMONELLA TYPHIMURIUM, Strain/Indicator: TA97, Metabolic Activation: RAT, LIVER, S-9, AROCLOR 1254 (10 OR 30%), Method: PREINCUBATION
# [4] = Test System: AMES SALMONELLA TYPHIMURIUM, Strain/Indicator: TA98, Metabolic Activation: HAMSTER, LIVER, S-9, AROCLOR 1254 (10 OR 30%), Method: PREINCUBATION
# [5] = Test System: AMES SALMONELLA TYPHIMURIUM, Strain/Indicator: TA98, Metabolic Activation: NONE, Method: PREINCUBATION
# [6] = Test System: AMES SALMONELLA TYPHIMURIUM, Strain/Indicator: TA98, Metabolic Activation: RAT, LIVER, S-9, AROCLOR 1254 (10 OR 30%), Method: PREINCUBATION
# [7] = Test System: AMES SALMONELLA TYPHIMURIUM, Strain/Indicator: TA100, Metabolic Activation: HAMSTER, LIVER, S-9, AROCLOR 1254 (10 OR 30%), Method: PREINCUBATION
# [8] = Test System: AMES SALMONELLA TYPHIMURIUM, Strain/Indicator: TA100, Metabolic Activation: NONE, Method: PREINCUBATION
# [9] = Test System: AMES SALMONELLA TYPHIMURIUM, Strain/Indicator: TA100, Metabolic Activation: RAT, LIVER, S-9, AROCLOR 1254 (10 OR 30%), Method: PREINCUBATION
# [10] = Test System: AMES SALMONELLA TYPHIMURIUM, Strain/Indicator: TA1535, Metabolic Activation: HAMSTER, LIVER, S-9, AROCLOR 1254 (10 OR 30%), Method: PREINCUBATION
# [11] = Test System: AMES SALMONELLA TYPHIMURIUM, Strain/Indicator: TA1535, Metabolic Activation: NONE, Method: PREINCUBATION
# [12] = Test System: AMES SALMONELLA TYPHIMURIUM, Strain/Indicator: TA1535, Metabolic Activation: RAT, LIVER, S-9, AROCLOR 1254 (10 OR 30%), Method: PREINCUBATION
# [13] = Test System: AMES SALMONELLA TYPHIMURIUM, Strain/Indicator: TA1537, Metabolic Activation: NONE, Method: PREINCUBATION
smiles,measurement,setting,value
CCN(CC)c1ccccc1,mutagenic call,[1],inactive; negative
same,mutagenic call,[2],inactive; negative
same,mutagenic call,[3],inactive; negative
same,mutagenic call,[4],inactive; negative
same,mutagenic call,"Test System: AMES SALMONELLA TYPHIMURIUM, Strain/Indicator: TA98, Metabolic Activation: HAMSTER, LIVER, S-9, PHENOBARBITAL AND BETA-NAPHTHOFLAVONE, Method: PREINCUBATION",inactive; negative
same,mutagenic call,[5],inactive; negative
same,mutagenic call,[6],inactive; negative
same,mutagenic call,[7],inactive; negative
same,mutagenic call,"Test System: AMES SALMONELLA TYPHIMURIUM, Strain/Indicator: TA100, Metabolic Activation: HAMSTER, LIVER, S-9, PHENOBARBITAL AND BETA-NAPHTHOFLAVONE, Method: PREINCUBATION",inactive; negative
same,mutagenic call,[8],inactive; negative
same,mutagenic call,[9],inactive; negative
same,mutagenic call,"Test System: AMES SALMONELLA TYPHIMURIUM, Strain/Indicator: TA102, Metabolic Activation: HAMSTER, LIVER, S-9, PHENOBARBITAL AND BETA-NAPHTHOFLAVONE, Method: PREINCUBATION",inactive; negative
same,mutagenic call,"Test System: AMES SALMONELLA TYPHIMURIUM, Strain/Indicator: TA102, Metabolic Activation: NONE, Method: PREINCUBATION",inactive; negative
same,mutagenic call,"Test System: AMES SALMONELLA TYPHIMURIUM, Strain/Indicator: TA104, Metabolic Activation: HAMSTER, LIVER, S-9, PHENOBARBITAL AND BETA-NAPHTHOFLAVONE, Method: PREINCUBATION",inactive; negative
same,mutagenic call,"Test System: AMES SALMONELLA TYPHIMURIUM, Strain/Indicator: TA104, Metabolic Activation: NONE, Method: PREINCUBATION",inactive; negative
same,mutagenic call,[10],inactive; negative
same,mutagenic call,"Test System: AMES SALMONELLA TYPHIMURIUM, Strain/Indicator: TA1535, Metabolic Activation: HAMSTER, LIVER, S-9, PHENOBARBITAL AND BETA-NAPHTHOFLAVONE, Method: PREINCUBATION",inactive; negative
same,mutagenic call,[11],inactive; negative
same,mutagenic call,[12],inactive; negative
same,mutagenic call,"Test System: AMES SALMONELLA TYPHIMURIUM, Strain/Indicator: TA1537, Metabolic Activation: HAMSTER, LIVER, S-9, PHENOBARBITAL AND BETA-NAPHTHOFLAVONE, Method: PREINCUBATION",inactive; negative
same,mutagenic call,[13],inactive; negative
same,mutagenic call,"Test System: E. COLI, Strain/Indicator: WP2UVRA/PKM101, Metabolic Activation: HAMSTER, LIVER, S-9, PHENOBARBITAL AND BETA-NAPHTHOFLAVONE, Method: PREINCUBATION",inactive; negative
same,mutagenic call,"Test System: E. COLI, Strain/Indicator: WP2UVRA/PKM101, Metabolic Activation: NONE, Method: PREINCUBATION",inactive; negative
same,mutagenic call,"Test System: E. COLI, Strain/Indicator: WP2UVRA, Metabolic Activation: HAMSTER, LIVER, S-9, PHENOBARBITAL AND BETA-NAPHTHOFLAVONE, Method: PREINCUBATION",inactive; negative
same,mutagenic call,"Test System: E. COLI, Strain/Indicator: WP2UVRA, Metabolic Activation: NONE, Method: PREINCUBATION",inactive; negative
same,mutagenic call,"Test System: UDS RODENT HEPATOCYTES, Strain/Indicator: THY INCORP (NON-S-PHASE), Metabolic Activation: NONE, Method: AUTORADIOGRAPHY",inactive; negative
O=C1O[C@H]([C@@H](O)CO)C(O)=C1O,mutagenic call,"End Point: IN VITRO CHROMOSOMAL ABERRATIONS, Test System: CHO CELLS, Metabolic Activation: RAT, LIVER, S-9, AROCLOR 1254",inactive; negative
same,mutagenic call,"End Point: IN VITRO MICRONUCLEUS, Test System: CHINESE HAMSTER OVARY (CHO-K5), Metabolic Activation: NONE",active; positive; no statistical analysis was performed
same,mutagenic call,"End Point: In vitro chromosomal aberrations, Test System: Chinese hamster lung CHL/IU cells, Metabolic Activation: None",inactive; negative. toxicicity at highest dose.
same,mutagenic call,"End Point: In vitro chromosomal aberrations, Test System: Chinese hamster ovary (CHO) cells, Metabolic Activation: None","inactive; negative; vitamin c, alone or in combination with glutamine, reduced effect of d"
same,mutagenic call,"End Point: In vitro chromosomal aberrations, Test System: Human peripheral blood lymphocytes, Metabolic Activation: None",active; positive (structural changes); response at highest dose only
same,mutagenic call,"End Point: In vivo chromosomal aberrations, Test System: Bone marrow cells, Species: Rat, Strain/Sex: Wistar/Male and female, Route: Oral","inactive; negative; vitamin c, alone or with glutamine, reduced effect of doxorubicin"
same,mutagenic call,[1],inactive; negative
same,mutagenic call,[2],inactive; negative
same,mutagenic call,"Test System: AMES SALMONELLA TYPHIMURIUM, Strain/Indicator: TA97, Metabolic Activation: NONE, Method: STANDARD PLATE",inactive; negative
same,mutagenic call,[3],inactive; negative
same,mutagenic call,"Test System: AMES SALMONELLA TYPHIMURIUM, Strain/Indicator: TA97, Metabolic Activation: RAT, LIVER, S-9, AROCLOR 1254, Method: STANDARD PLATE",inactive; negative
same,mutagenic call,[4],inactive; negative
same,mutagenic call,[5],inactive; negative
same,mutagenic call,"Test System: AMES SALMONELLA TYPHIMURIUM, Strain/Indicator: TA98, Metabolic Activation: NONE, Method: STANDARD PLATE",inactive; negative
same,mutagenic call,[6],inactive; negative
same,mutagenic call,"Test System: AMES SALMONELLA TYPHIMURIUM, Strain/Indicator: TA98, Metabolic Activation: RAT, LIVER, S-9, AROCLOR 1254, Method: STANDARD PLATE",inactive; negative
same,mutagenic call,[7],inactive; negative
same,mutagenic call,[8],inactive; negative
same,mutagenic call,"Test System: AMES SALMONELLA TYPHIMURIUM, Strain/Indicator: TA100, Metabolic Activation: NONE, Method: STANDARD PLATE",inactive; negative
same,mutagenic call,[9],inactive; negative
same,mutagenic call,"Test System: AMES SALMONELLA TYPHIMURIUM, Strain/Indicator: TA100, Metabolic Activation: RAT, LIVER, S-9, AROCLOR 1254, Method: STANDARD PLATE",inactive; negative
same,mutagenic call,"Test System: AMES SALMONELLA TYPHIMURIUM, Strain/Indicator: TA102, Metabolic Activation: NONE, Method: STANDARD PLATE",inactive; negative
same,mutagenic call,"Test System: AMES SALMONELLA TYPHIMURIUM, Strain/Indicator: TA104, Metabolic Activation: NONE, Method: STANDARD PLATE",inactive; negative
same,mutagenic call,[10],inactive; negative
same,mutagenic call,[11],inactive; negative
same,mutagenic call,[12],inactive; negative
same,mutagenic call,"Test System: AMES SALMONELLA TYPHIMURIUM, Strain/Indicator: TA1537, Metabolic Activation: HAMSTER, LIVER, S-9, AROCLOR 1254 (10 OR 30%), Method: PREINCUBATION",inactive; negative
same,mutagenic call,[13],inactive; negative
same,mutagenic call,"Test System: AMES SALMONELLA TYPHIMURIUM, Strain/Indicator: TA1537, Metabolic Activation: RAT, LIVER, S-9, AROCLOR 1254 (10 OR 30%), Method: PREINCUBATION",inactive; negative
same,mutagenic call,"Test System: E. coli, Strain/Indicator: YG5190 (WP2 uvrA/pKM101 deficient in mutM gene), Metabolic Activation: None, Method: Preincubation",inactive; negative. addition of sodium nitrite (100 ug/plate) increased mutagenic response
same,mutagenic call,"Test System: E. coli, Strain/Indicator: YG5190 (WP2 uvrA/pKM101 deficient in mutM gene), Metabolic Activation: S9, Method: Preincubation",inactive; negative. addition of sodium nitrite (100 ug/plate) increased mutagenic response
same,mutagenic call,"Test System: HCT116 COLON CANCER CELLS, Strain/Indicator: HCT116 CELLS (HPRT)/6-THIOGUANINE, Metabolic Activation: NONE, Method: STANDARD PLATE",inactive; negative
O=C(/C=C/c1ccc(O)cc1)c1ccc(O)cc1O,mutagenic call,"Test System: Ames Salmonella typhimurium, Strain/Indicator: TA102, Metabolic Activation: None, Method: Preincubation",inactive; negative
same,mutagenic call,"Test System: Ames Salmonella typhimurium, Strain/Indicator: TA102, Metabolic Activation: Rat, Liver, S-9, Aroclor 1254 in 0.154 M KCl, Method: Preincubation",active; positive
